Experimental findings from patent US7927581B2, “Peptide-based multimeric targeted contrast agents” (Factor 1A, LLC, priority 2001, dated 2011) are described below.

The target of one data set is fibrin DD(E) fragment (Homo sapiens, UniProt P02671+P02675+P02679). The experiment in a line: Fibrin DD(E) fragment affinity of optical contrast agents. Type of data set: binding. How it is done:
NovaSyn TGR resin (0.20 mmol/g, 100 mg, 20 μmol) was washed with NMP/ether/NMP. The peptide was assembled by the standard solid phase method using the PyBOP/HOBt/DIEA activation. After the coupling of the final amino acid residue, the resin bound peptide was treated with a solution of piperidine in DMF (20% by volume, 2.0 mL) for 10 minutes to remove the Fmoc protecting group. The resin was washed thoroughly with NMP/ether/NMP, and was treated with a solution of fluorascein-5-isothiocyanate (23.4 mg, 60 μmol) and duisopropylethylamine (11.6 mg, 15.7 μL, 90 μmol) in DMF (1.5 mL) for 12 hours. The resin was washed thoroughly (NMP/ether/NMP), and treated with a solution of Tl (TFA)3 (18.7 mg, 34.5 μmol) in DMF (1.5 mL) at 4° C. for three hours. The resin was washed after this treatment, and treated with a cocktail of TFA/TIS/water (95/2.5/2.5, 2.0 mL) for two hours. The crude peptide was precipitated by adding ether to the cleavage cocktail, and purified by preparative HPLC using a Vydac C-18 column. Structures A-N were formed in this manner and their fibrin DD(E) fragment affinities were determined (Table 5).
N-terminal labeling of the peptides with optical probes can modulate the binding affinity of the optical contrast agents. For example, when comparing fluorescein, 4-methoxycoumarin and tetramethylrhodamine derivatives of the peptide (QWECPYGLCWIQ (SEQ ID NO:27); Kd=3 μM) the following Kd's were observed (Table 6): […]

Data set [1] in a line: Stability in rat liver homogenate. Type of data set: in vitro ADME. The note with it: 37° C., LC-MS; for half-life: tissue homogenate. The protocol:
Stability was assayed using rat liver homogenate, which contains both intra- and extracellular enzymes and represents a particularly harsh chemical environment for peptide bonds. Freshly prepared rat liver homogenate (630 μL) was placed in a glass test tube and incubated at 37° C. in a water bath for 4 minutes. To the rat liver homogenate at 37° C. was added 70 μL of a 1 mM solution of test compound. At time points 0, 5, 15, 30, and 60 minutes, a 100 μL aliquot of the reaction mixture was removed and mixed with 100 μL of methanol in a microfuge tube to quench the reaction. The quenched reaction mixture was centrifuged for 3 minutes at 10,000 rpm to pellet the precipitated protein. The supernatant was analyzed by LC-MS to quantitate the amount of test compound remaining by comparing the area of the single ion MS peak to that of a series of standards. Half life (T1/2) was determined by plotting log percent signal remaining vs. time. The data were fit using an exponential curve fit, wherein T1/2=In2/slope.

Setting [2] is: fluorescein-labeled peptides, read-out: Kd (μM) Vs. DD(E).

Like-named read-outs stand apart in the source and are kept apart here. Positions of bridges follow the written chain, without caps; N, C: chain ends. Non-standard residues stand in square brackets, D forms with d. Residues, ends and D or L forms follow the SMILES beside them. *: point of attachment. FITC = O=C1OC2(c3ccc(O)cc3Oc3cc(O)ccc32)c2ccc(NC(=S)*)cc21; Tyr(3-I) = N[C@@H](Cc1ccc(O)c(I)c1)C(=O)O; Hyp = O=C(O)[C@@H]1C[C@@H](O)CN1; Ahx = NCCCCCC(=O)O

As usually defined, the Kd is the equilibrium constant for the complex coming apart. The term half-life denotes the time in which the quantity being followed falls by half. Read a low half-life as rapid decline.

Sequence of fibrin DD(E) fragment (P02671 124-216): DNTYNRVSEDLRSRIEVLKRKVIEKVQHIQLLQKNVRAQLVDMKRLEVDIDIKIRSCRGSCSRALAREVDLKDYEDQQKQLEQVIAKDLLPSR
Sequence of fibrin DD(E) fragment (P02675 164-491): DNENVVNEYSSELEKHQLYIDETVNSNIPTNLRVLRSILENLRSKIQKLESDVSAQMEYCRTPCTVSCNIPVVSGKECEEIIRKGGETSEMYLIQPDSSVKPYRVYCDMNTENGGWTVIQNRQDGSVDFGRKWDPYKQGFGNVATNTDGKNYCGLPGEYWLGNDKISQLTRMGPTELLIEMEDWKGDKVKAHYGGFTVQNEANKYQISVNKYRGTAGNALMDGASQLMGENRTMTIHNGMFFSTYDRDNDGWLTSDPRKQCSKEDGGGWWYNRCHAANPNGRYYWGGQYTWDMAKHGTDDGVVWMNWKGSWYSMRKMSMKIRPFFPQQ
Sequence of fibrin DD(E) fragment (P02679 114-432): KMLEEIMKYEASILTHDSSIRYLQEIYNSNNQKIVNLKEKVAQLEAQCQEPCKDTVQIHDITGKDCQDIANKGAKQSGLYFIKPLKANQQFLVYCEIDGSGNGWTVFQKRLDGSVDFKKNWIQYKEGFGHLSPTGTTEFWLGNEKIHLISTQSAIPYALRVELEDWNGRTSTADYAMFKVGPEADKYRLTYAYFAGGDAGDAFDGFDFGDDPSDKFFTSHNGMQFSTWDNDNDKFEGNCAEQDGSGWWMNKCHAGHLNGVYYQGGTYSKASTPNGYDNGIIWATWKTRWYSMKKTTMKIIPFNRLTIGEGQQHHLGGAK
Sequence of fibrin DD(E) fragment (P02671 36-97): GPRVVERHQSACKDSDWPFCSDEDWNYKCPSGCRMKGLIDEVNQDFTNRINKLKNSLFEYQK
Sequence of fibrin DD(E) fragment (P02675 45-152): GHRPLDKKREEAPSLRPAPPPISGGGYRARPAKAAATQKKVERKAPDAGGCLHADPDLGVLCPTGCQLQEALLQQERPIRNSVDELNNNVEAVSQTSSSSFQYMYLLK
Sequence of fibrin DD(E) fragment (P02679 27-88): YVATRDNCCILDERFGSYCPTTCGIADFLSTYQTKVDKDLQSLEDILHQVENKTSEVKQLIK

Regarding `CC[C@H](C)[C@H](NC(=O)[C@H](Cc1c[nH]cn1)NC(=O)[C@@H]1CSSC[C@H](NC(=O)[C@H](Cc2c[nH]cn2)NC(=O)[C@H](Cc2ccccc2)NC(=O)CNC(=O)CCCCCNC(=S)Nc2ccc3c(c2)C(=O)OC32c3ccc(O)cc3Oc3cc(O)ccc32)C(=O)N2C[C@H](O)C[C@H]2C(=O)N[C@@H](Cc2ccc(O)c(I)c2)C(=O)N[C@@H](CC(=O)O)C(=O)N[C@@H](CC(C)C)C(=O)N1)C(N)=O` [C] ({FITC-Ahx}-GFHC[Hyp][Tyr(3-I)]DLCHI-NH2; disulfide 4-9), at fibrin DD(E) fragment (setting [2]), the dissociation constant Kd worked out at 0.097 µM.

In turn, `CC(C)C[C@H](NC(=O)[C@@H]1CSSC[C@H](NC(=O)[C@@H]2CCCN2C(=O)[C@H](CC(C)C)NC(=O)C(CNC(=O)C(CN(CCN(CC(=O)O)CC(=O)O)CC(=O)O)N(CC(=O)O)CC(=O)O)NC(=O)C(CN(CCN(CC(=O)O)CC(=O)O)CC(=O)O)N(CC(=O)O)CC(=O)O)C(=O)N[C@@H](CC(=O)O)C(=O)N[C@@H](Cc2ccc(O)cc2)C(=O)N[C@@H](Cc2ccc(O)cc2)C(=O)NCC(=O)N[C@@H]([C@@H](C)O)C(=O)N1)C(=O)N[C@@H](CC(=O)O)C(=O)NCc1ccc(CNC(=O)C(CNC(=O)C(CN(CCN(CC(=O)O)CC(=O)O)CC(=O)O)N(CC(=O)O)CC(=O)O)NC(=O)C(CN(CCN(CC(=O)O)CC(=O)O)CC(=O)O)N(CC(=O)O)CC(=O)O)cc1` (stereo partly shown) [Compound 5] returned a half-life in data set [1] of 65 min.

Regarding `CC[C@H](C)[C@H](NC(=O)[C@H](Cc1c[nH]cn1)NC(=O)[C@@H]1CSSC[C@H](NC(=O)[C@H](Cc2c[nH]cn2)NC(=O)[C@H](Cc2ccccc2)NC(=O)[C@H](Cc2c[nH]c3ccccc23)NC(=S)Nc2ccc3c(c2)C(=O)OC32c3ccc(O)cc3Oc3cc(O)ccc32)C(=O)N2CCC[C@H]2C(=O)N[C@@H](Cc2ccc(O)cc2)C(=O)N[C@@H](CC(=O)O)C(=O)N[C@@H](CC(C)C)C(=O)N1)C(=O)N[C@@H](CC(C)C)C(N)=O` [Compound K] (HELM PEPTIDE1{[O=C1OC2(c3ccc(O)cc3Oc3cc(O)ccc32)c2ccc(NC(=S)[*:2])cc21].W.F.H.C.P.Y.D.L.C.H.I.L.[am]}$PEPTIDE1,PEPTIDE1,5:R3-10:R3$$$V2.0), on fibrin DD(E) fragment (setting [2]), the dissociation constant (Kd) stood at 0.06 µM.

On to `CC[C@H](C)[C@H](NC(=O)[C@H](Cc1c[nH]cn1)NC(=O)[C@@H]1CSSC[C@H](NC(=O)[C@H](Cc2c[nH]cn2)NC(=O)[C@H](Cc2ccccc2)NC(=O)[C@H](Cc2c[nH]c3ccccc23)NC(=O)CCCCCNC(=S)Nc2ccc3c(c2)C(=O)OC32c3ccc(O)cc3Oc3cc(O)ccc32)C(=O)N2C[C@H](O)C[C@H]2C(=O)N[C@@H](Cc2ccc(O)c(I)c2)C(=O)N[C@@H](CC(=O)O)C(=O)N[C@@H](CC(C)C)C(=O)N1)C(N)=O` [D] ({FITC-Ahx}-WFHC[Hyp][Tyr(3-I)]DLCHI-NH2; disulfide 4-9), for which the dissociation constant Kd on fibrin DD(E) fragment (setting [2]) worked out at 0.061 µM.

For `CC[C@H](C)[C@H](NC(=O)[C@H](Cc1c[nH]cn1)NC(=O)[C@@H]1CSSC[C@H](NC(=O)[C@H](Cc2c[nH]cn2)NC(=O)[C@H](Cc2ccccc2)NC(=O)CNC(=O)CNC(=O)CCCCCNC(=S)Nc2ccc3c(c2)C(=O)OC32c3ccc(O)cc3Oc3cc(O)ccc32)C(=O)N2C[C@H](O)C[C@H]2C(=O)N[C@@H](Cc2ccc(O)c(I)c2)C(=O)N[C@@H](CC(=O)O)C(=O)N[C@@H](CC(C)C)C(=O)N1)C(N)=O` [E] ({FITC-Ahx}-GGFHC[Hyp][Tyr(3-I)]DLCHI-NH2; disulfide 5-10), the Kd on fibrin DD(E) fragment (setting [2]) was 0.09 µM.

As to `CC[C@H](C)[C@H](NC(=O)[C@H](Cc1c[nH]c2ccccc12)NC(=O)[C@@H]1CSSC[C@H](NC(=O)[C@H](CCC(=O)O)NC(=O)[C@H](Cc2c[nH]c3ccccc23)NC(=O)[C@H](CCC(N)=O)NC(=S)Nc2ccc3c(c2)C(=O)OC32c3ccc(O)cc3Oc3cc(O)ccc32)C(=O)N2CCC[C@H]2C(=O)N[C@@H](Cc2ccc(O)cc2)C(=O)NCC(=O)N[C@@H](CC(C)C)C(=O)N1)C(=O)N[C@@H](CCC(N)=O)C(N)=O` [J] (HELM PEPTIDE1{[O=C1OC2(c3ccc(O)cc3Oc3cc(O)ccc32)c2ccc(NC(=S)[*:2])cc21].Q.W.E.C.P.Y.G.L.C.W.I.Q.[am]}$PEPTIDE1,PEPTIDE1,5:R3-10:R3$$$V2.0), the Kd is 0.055 µM on fibrin DD(E) fragment (setting [2]) and 0.06 µM on fibrin DD(E) fragment (fluorophore derivatives of QWECPYGLCWIQ, no unit in Table 6, read-out: Kd).

Regarding `CC(C)C[C@H](NC(=O)[C@@H]1CSSC[C@H](NC(=O)[C@@H]2CCCN2C(=O)[C@@H](N)CC(C)C)C(=O)N[C@@H](CC(=O)O)C(=O)N[C@@H](Cc2ccc(O)cc2)C(=O)N[C@@H](Cc2ccc(O)cc2)C(=O)NCC(=O)N[C@@H](C(C)O)C(=O)N1)C(=O)N[C@@H](CC(=O)O)C(N)=O` (stereo partly shown) [Structure 1], in data set [1], the half-life at 100 µM was less than 2 min.

`C=NOCC(=O)NCCN(CCN(CCNC(=O)CO/N=C/C(=O)N[C@@H](CC(C)C)C(=O)N1CCC[C@H]1C(=O)N[C@H]1CSSC[C@@H](C(=O)N[C@@H](Cc2ccc(-c3ccccc3)cc2)C(=O)N[C@@H](CC(=O)O)C(N)=O)NC(=O)[C@H]([C@@H](C)O)NC(=O)CNC(=O)[C@H](Cc2ccc(O)cc2)NC(=O)[C@H](Cc2ccc(O)cc2)NC(=O)[C@H](CC(=O)O)NC1=O)C(=O)C(CNC(=O)CN(CCN(CCN(CC(=O)O)CC(=O)O)CC(=O)O)CC(=O)O)NC(=O)CN(CCN(CCN(CC(=O)O)CC(=O)O)CC(=O)O)CC(=O)O)C(=O)C(CNC(=O)CN(CCN(CCN(CC(=O)O)CC(=O)O)CC(=O)O)CC(=O)O)NC(=O)CN(CCN(CCN(CC(=O)O)CC(=O)O)CC(=O)O)CC(=O)O` (stereo partly shown) [Structure 2]: the half-life in data set [1] came to 10 min.

As to `CC(C)C[C@H](NC(=O)[C@@H]1CSSC[C@H](NC(=O)[C@@H]2CCCN2C(=O)[C@H](CC(C)C)NC(=O)c2ccc(-c3ccccc3)cc2)C(=O)N[C@@H](CC(=O)O)C(=O)N[C@@H](Cc2ccc(O)cc2)C(=O)N[C@@H](Cc2ccc(O)cc2)C(=O)NCC(=O)N[C@@H]([C@@H](C)O)C(=O)N1)C(=O)N[C@@H](CC(=O)O)C(=O)NCCN(CCN(CCN)C(=O)C(CNC(=O)CN(CCN(CCN(CC(=O)O)CC(=O)O)CC(=O)O)CC(=O)O)NC(=O)CN(CCN(CCN(CC(=O)O)CC(=O)O)CC(=O)O)CC(=O)O)C(=O)C(CNC(=O)CN(CCN(CCN(CC(=O)O)CC(=O)O)CC(=O)O)CC(=O)O)NC(=O)CN(CCN(CCN(CC(=O)O)CC(=O)O)CC(=O)O)CC(=O)O` (stereo partly shown) [Structure 3], the half-life in data set [1] amounted to 9 min.
